Measured values published in publication PMC9023544, “Ketone-selenoesters as potential anticancer and multidrug resistance modulation agents in 2D and 3D ovarian and breast cancer in vitro models” (Scientific Reports, 2022).

System: ABC superfamily genes in MCF-7/PAX
Experiment: Expression of genes encoding ABC transporters, qPCR
Format: cell-based, human
Procedure: Based on the fact that compounds K3, K4, K7 sensitized drug-resistant cell lines (HOC/ADR, MCF-7/PAX) and modulated ATPase activity of one from the ABC proteins (P-gp), we verified the potential of these compounds to affect ABC superfamily gene expression. The ovarian and breast cancer cell lines (parental cells and resistant sub-line) were analysed for the expression profile of genes encoding the ABC proteins in the previous works[18]–[20]. […] After 48 h, the effect of compounds alone or in the combination with cytostatics was observed (Supplementary Tables 1, Table 2).
To determine the impact of selected compounds on the expression of genes encoding ABC transporter, HOC/ADR and MCF-7/PAX cells were seeded for 24 h into 5 cm Petri dishes with DMEM medium at the cell density 1 × 10^5 cells/mL. Afterwards, the cells were washed 1× with PBS and new fresh DMEM supplemented with K3, K4, and K7 (in concentration corresponding to their IC10 value) alone or combined with cytostatics (Adriamycin or paclitaxel in concentration corresponding to their IC25 value) was added. In the experiment, positive and negative control was also included (positive—untreated cells, negative—cells treated only with cytostatics). After 48 h exposure, the cells were washed once with PBS and released from the surface by using the above-mentioned trypsin–EDTA procedure. The enzyme reaction was stopped by medium addition and the cells were centrifuged (3200×g; 10 min, 4 °C). The supernatants were removed and before the next centrifugation, the pellets were resuspended in 1.5 mL of cooled PBS (5400×g; 10 min, 4 °C). After the second washing step, the cells were centrifuged another time (10,000×g; 3 min, 4 °C). Subsequently, 1 mL of Trizol (Invitrogen) was added to the pellets and the compounds were stored − 80 °C.
The RNA concentration of selenoester treated samples was determined using QuantiT RiboGreen RNA Assay Kit and Infinite M200 plate reader (Tecan, Männedor, Switzerland). The cDNA was synthesized from 0.5 µg of total RNA by RevertAid First Strand Synthesis cDNA Kit (MBI Fermentas, Vilnius, Lithuania). To determine the quality of cDNA, the ubiquitin C gene fragment was amplified. The experiment was performed in 384-well block by using ViiA7 Real-Time PCR System (Life Technologies, Camarillo, California, United States). A master mix contained 0.25 µL of 20× TaqMan Gene Expression Assay, 1 µL of 5× HotFIREPol Probe qPCR Mix Plus, 1.75 µL of RNase free water and 2 µL of 8× diluted cDNA. The final reaction volume was 5 µL. The PCR parameters were as follows: initial hold (50 °C for 2 min), denaturation (95 °C for 10 min), followed by 45 cycles (denaturation at 95 °C for 15 s, annealing at 60 °C for 1 min). After each cycle, the fluorescent signal was determined. For each compound, duplicates were analysed and those with a standard deviation higher than 0.5 Ct were re-analysed. A quantitate real-time PCR was followed by MIQE guidelines. To compare the relative transcript levels of genes, the software REST 2009 (Qiagen, Hilden, Germany) was used.
Table 2. Effect of selenoesters either on the expression of the ABC gene superfamily in paclitaxel-resistant breast cancer cell line (MCF-7/PAX).
Gene expression of ABC transporters were estimated using comercial predesigned Taqman Gene Expression Assays (Life technologies). TaqMan Gene Expression Assays are based on 5´ nuclease chemistry, and each assay contains the primer and probe set for target of interest. Taqman assays IDs and GenBank Accession numbers of reference sequencies identifying their location and amplicon lengths are included in the Supplementary Table I. * Relative transcript levels (P-value ) in treated and non-treated cancer cell lines were compared using REST 2009 software.

CC(=O)C[Se]C(=O)c1ccc(C(C)(C)C)cc1 [K7]
number of ABC genes with altered expression: 32
ABCA2 Expression Difference (IC10 alone, 48 h): 0.159
ABCA2 Treated vs. Untr. (IC10 alone, 48 h): DOWN
ABCA3 Expression Difference (IC10 alone, 48 h): 0.376
ABCA3 Treated vs. Untr. (IC10 alone, 48 h): DOWN
ABCA4 Expression Difference (IC10 alone, 48 h): 20.68
ABCA5 Expression Difference (IC10 alone, 48 h): 0.600
ABCA5 Treated vs. Untr. (IC10 alone, 48 h): DOWN
ABCA7 Expression Difference (IC10 alone, 48 h): 0.384
ABCA7 Treated vs. Untr. (IC10 alone, 48 h): DOWN
ABCA12 Expression Difference (IC10 alone, 48 h): 0.745
ABCA12 Treated vs. Untr. (IC10 alone, 48 h): DOWN
ABCB1 Expression Difference (IC10 alone, 48 h): 0.361
ABCB1 Treated vs. Untr. (IC10 alone, 48 h): DOWN
ABCB2 Expression Difference (IC10 alone, 48 h): 0.274
ABCB2 Treated vs. Untr. (IC10 alone, 48 h): DOWN
ABCB3 Expression Difference (IC10 alone, 48 h): 0.164
ABCB3 Treated vs. Untr. (IC10 alone, 48 h): DOWN
ABCB6 Expression Difference (IC10 alone, 48 h): 0.305
ABCB6 Treated vs. Untr. (IC10 alone, 48 h): DOWN
ABCB7 Expression Difference (IC10 alone, 48 h): 0.131
ABCB7 Treated vs. Untr. (IC10 alone, 48 h): DOWN
ABCB8 Expression Difference (IC10 alone, 48 h): 0.407
ABCB8 Treated vs. Untr. (IC10 alone, 48 h): DOWN
ABCB9 Expression Difference (IC10 alone, 48 h): 0.340
ABCB9 Treated vs. Untr. (IC10 alone, 48 h): DOWN
ABCB10 Expression Difference (IC10 alone, 48 h): 0.822
ABCB10 Treated vs. Untr. (IC10 alone, 48 h): DOWN
ABCC1 Expression Difference (IC10 alone, 48 h): 0.238
ABCC1 Treated vs. Untr. (IC10 alone, 48 h): DOWN
ABCC2 Expression Difference (IC10 alone, 48 h): 0.061
ABCC2 Treated vs. Untr. (IC10 alone, 48 h): DOWN
ABCC3 Expression Difference (IC10 alone, 48 h): 15.69
ABCC4 Expression Difference (IC10 alone, 48 h): 0.213
ABCC4 Treated vs. Untr. (IC10 alone, 48 h): DOWN
ABCC5 Expression Difference (IC10 alone, 48 h): 0.933
ABCC5 Treated vs. Untr. (IC10 alone, 48 h): DOWN
ABCC6 Expression Difference (IC10 alone, 48 h): 0.424
ABCC6 Treated vs. Untr. (IC10 alone, 48 h): DOWN
ABCC8 Expression Difference (IC10 alone, 48 h): 0.651
ABCC8 Treated vs. Untr. (IC10 alone, 48 h): DOWN
ABCC10 Expression Difference (IC10 alone, 48 h): 0.170
ABCC10 Treated vs. Untr. (IC10 alone, 48 h): DOWN
ABCD1 Expression Difference (IC10 alone, 48 h): 0.104
ABCD1 Treated vs. Untr. (IC10 alone, 48 h): DOWN
ABCD3 Expression Difference (IC10 alone, 48 h): 0.247
ABCD3 Treated vs. Untr. (IC10 alone, 48 h): DOWN
ABCD4 Expression Difference (IC10 alone, 48 h): 0.872
ABCD4 Treated vs. Untr. (IC10 alone, 48 h): DOWN
ABCE1 Expression Difference (IC10 alone, 48 h): 0.505
ABCE1 Treated vs. Untr. (IC10 alone, 48 h): DOWN
ABCF1 Expression Difference (IC10 alone, 48 h): 2.263
ABCF2 Expression Difference (IC10 alone, 48 h): 0.601
ABCF2 Treated vs. Untr. (IC10 alone, 48 h): DOWN
ABCF3 Expression Difference (IC10 alone, 48 h): 0.484
ABCF3 Treated vs. Untr. (IC10 alone, 48 h): DOWN
ABCG1 Expression Difference (IC10 alone, 48 h): 0.307
ABCG1 Treated vs. Untr. (IC10 alone, 48 h): DOWN
ABCG2 Expression Difference (IC10 alone, 48 h): 0.207
ABCG2 Treated vs. Untr. (IC10 alone, 48 h): DOWN
ABCG4 Expression Difference (IC10 alone, 48 h): 0.188
ABCG4 Treated vs. Untr. (IC10 alone, 48 h): DOWN
decrease of expression of ABCB1 (P-gp) encoding gene (IC10 alone, 48 h): 64%
downregulation of expression of ABCC1 (MRP1) (IC10 alone, 48 h): 76%
downregulation of expression of ABCG2 (IC10 alone, 48 h): 80%
